Data: publication PMC10362274 (iScience, 2023)

Molecular target: HLA-A∗02:01 (Homo sapiens, UniProt P04439, D140Y/D185E/D98H/E176V/E277Q/G131W/G231S/I119V/I121R/I166T/I218V/L300P/L318F/N151K/N90K/P208A/P217A/Q86G/Q94H/R138H/R169H/T345S)
Format: binding
Conditions: n = 2

YM2SODGTM6SOSQV [M2SOM6SO]
IC50 compared with the native peptide: increased
